# Biological target: GABAa receptor
# Experiment: Inhibition of 3H-RO15-1788 [3H-Flumazenil] binding to rat cortical tissue (GABAa receptor activity)
# Details: 0.5 nM 3H-RO15-1788, 30 min at 4° C., pH 7.4
# Procedure: The pharmaceutical utility of compounds of this invention are indicated by the following assay for GABAa receptor activity.
# Assays are carried out as described in Thomas and Tallman (J. Bio. Chem. 156: 9838-9842, J. Neurosci. 3:433-440, 1983). Rat cortical tissue is dissected and homogenized in 25 volumes (w/v) of 0.05M Tris HCl buffer (pH 7.4 at 4° C.). The tissue homogenate is centrifuged in the cold (4° C.) at 20,000×g for 20 minutes. The supernatant is decanted and the pellet is rehomogenized in the same volume of buffer and again centrifuged at 20,000×g. The supernatant is decanted and the pellet is frozen at -20° C. overnight. The pellet is then thawed and rehomogenized in 25 volume (original wt/vol) of buffer and the procedure is carried out twice. The pellet is finally resuspended in 50 volumes (w/vol of 0.05M Tris HCl buffer (pH 7.4 at 4° C.).
# Incubations contain […] of radioligand 0.5 nM (^3 H-RO15-1788 [^3 H-Flumazenil] specific activity 80 Ci/mmol), drug or blocker and buffer to a total volume of […]. Incubations are carried for 30 min at 4° C. then are rapidly filtered through GFB filters to separate free and bound ligand. Filters are washed twice with fresh 0.05M Tris HCl buffer (pH 7.4 at 4° C.) and counted in a liquid scintillation counter. […] diazepam is added to some tubes to determine nonspecific binding. Data are collected in triplicate determinations, averaged and % inhibition of total specific binding is calculated. Total Specific Binding=Total-Nonspecific. In some cases, the amounts of unlabeled drugs is varied and total displacement curves of binding are carried out. Data are converted to a form for the calculation of IC50 and Hill Coefficient (nH).
row,IC50 [µM],Compound
1,0.7,"O=C1c2c(c3ccccc3[nH]c2=O)C(=O)N1c1ccccc1F [Compound 4, 2-(2-Fluorophenyl)-pyrrolo[3,4-c]quinoline-1,3,4(5H)-trione]"
2,0.036,"O=C1c2c(c3ccccc3[nH]c2=O)C(=O)N1c1ccccc1 [Compound 1, 2'-Phenyl-pyrrolo[3,4-c]quinoline-1,3,4(5H)-trione]"
3,0.602,"O=C1c2c(c3ccccc3[nH]c2=O)CN1c1ccccc1 [Compound 16, 2-Phenyl-pyrrolo[3,4-c]quinoline-3(1H),4(5H)-dione]"
4,0.4,"COc1ccc(N2C(=O)c3c(c4ccccc4[nH]c3=O)C2=O)cc1 [Compound 2, 2-(4-Methoxyphenyl)-pyrrolo[3,4-c]quinoline-1,3,4(5H)-trione]"

# Tested on: benzodiazepine binding site / GABA receptor
# Experiment: not given
# Details: brain membranes; cited from earlier work
row,Compound,Block of enhancement of benzodiazepine binding by GABA agonists
1,CN1CCc2cc3c(cc2[C@H]1[C@@H]1OC(=O)c2c1ccc1c2OCO1)OCO3 [(+) bicuculline],blocked
2,CN1CCc2cc3c(cc2[C@@H]1[C@H]1OC(=O)c2c1ccc1c2OCO1)OCO3 [(-) bicuculline],much less active
